Assay results taken from ChEMBL document CHEMBL3352105, “Design, synthesis and SAR analysis of antitumour styryl lactones related to (+)-crassalactones B and C” (Eur J Med Chem, 2014).

Assays:
MDA-MB-231 = test: Cytotoxicity against human MDA-MB-231 cells after 72 hrs by MTT assay; type: functional, cell-based; conditions: MDA-MB-231, 72 h
[1] = Cytotoxicity against human HL60 cells after 72 hrs by MTT assay; type: functional, cell-based; conditions: HL-60, 72 h
K562 = test: Cytotoxicity against human K562 cells after 72 hrs by MTT assay; type: functional, cell-based; conditions: K562, 72 h
MRC5 = test: Cytotoxicity against human MRC5 cells after 72 hrs by MTT assay; type: cell-based; conditions: MRC5, 72 h
HeLa = test: Cytotoxicity against human HeLa cells after 72 hrs by MTT assay; type: functional, cell-based
Jurkat = test: Cytotoxicity against human Jurkat cells after 72 hrs by MTT assay; type: functional, cell-based
Raji [2] = test: Cytotoxicity against human Raji cells after 72 hrs by MTT assay; type: functional, cell-based
MCF7 = test: Cytotoxicity against human MCF7 cells after 72 hrs by MTT assay; type: functional, cell-based; conditions: MCF7, 72 h
HL-60 = test: Potency index, ratio of IC50 for doxorubicin to IC50 for test compound against human HL60 cells after 72 hrs by MTT assay; type: functional
Raji [3] = test: Potency index, ratio of IC50 for doxorubicin to IC50 for test compound against human Raji cells after 72 hrs by MTT assay; type: functional

Compound	IC50 (MDA-MB-231) [µM]	IC50 [1] [µM]	IC50 (K562) [µM]	IC50 (MRC5) [µM]	IC50 (HeLa) [µM]	IC50 (Jurkat) [µM]	IC50 (Raji [2]) [µM]	IC50 (MCF7) [µM]	Ratio IC50 (HL-60)	Ratio IC50 (Raji [3])
COc1ccc(/C=C/C(=O)O[C@@H]2[C@H]3OC(=O)C[C@H]3O[C@@H]2[C@H](O)c2ccccc2)cc1	> 100	50.2	4.21	> 100	18.6	13.4	5.69	11.1		
O=C(/C=C/c1ccccc1)OC1C2OC(=O)CC2O[C@@H]1Cc1ccccc1 (single isomer, unassigned)	4.32	2.21	4.67	> 100	1.25	0.29	0.88	58.6		
O=C(/C=C/c1ccc([N+](=O)[O-])cc1)O[C@@H](c1ccccc1)[C@H]1O[C@@H]2CC(=O)O[C@@H]2[C@H]1O	64.2	10.5	14.2	> 100	4.01	24.6	4.36	4.15		
O=C(/C=C/c1ccc(F)cc1)O[C@@H](c1ccccc1)[C@H]1O[C@@H]2CC(=O)O[C@@H]2[C@H]1O	31.6	11	15.7	> 100	4.36	19.6	12.7	5.36		
O=C(/C=C/c1ccccc1)O[C@@H]1[C@H]2OC(=O)C[C@H]2O[C@@H]1[C@@H](O)c1ccccc1	8.64	0.02	3.33	> 100	2.47	0.87	14.5	0.22	46	
O=C(/C=C/c1ccc(F)cc1)O[C@@H]1[C@H]2OC(=O)C[C@H]2O[C@@H]1[C@@H](O)c1ccccc1	1.32	2.11	0.85	> 100	4.12	0.69	1.74	84.5		
O=C(/C=C/c1ccccc1)O[C@@H]1[C@H]([C@@H](O)c2ccccc2)O[C@H]2CC(=O)O[C@@H]12 [(+)-CRASSALACTONE B]	5.32	2.54	0.78	> 100	0.98	0.12	14.6	0.85		
O=C(/C=C/c1ccc([N+](=O)[O-])cc1)O[C@@H]1[C@H]2OC(=O)C[C@H]2O[C@@H]1[C@H](O)c1ccccc1	5.36	48.2	14.6	> 100	21.4	44.7	8.23	> 100		
COc1ccc(/C=C/C(=O)O[C@@H]2[C@H]3OC(=O)C[C@H]3O[C@@H]2[C@@H](O)c2ccccc2)cc1	7.32	0.11	2.63	> 100	3.21	1.12	2.34	20.2		
COc1ccc(/C=C/C(=O)O[C@H](c2ccccc2)[C@H]2O[C@@H]3CC(=O)O[C@@H]3[C@H]2O)cc1	> 100	41.4	3.25	> 100	24.9	42.3	4.37	12.3		
O=C(/C=C/c1ccc(F)cc1)O[C@@H]1[C@H]2OC(=O)C[C@H]2O[C@@H]1[C@H](O)c1ccccc1	25.7	11.5	10.2	> 100	29.9	17.6	11.1	14.9		
O=C(/C=C/c1ccc(F)cc1)OC1C2OC(=O)CC2O[C@@H]1Cc1ccccc1 (single isomer, unassigned)	8.22	1.02	0.25	> 100	1.02	2.63	1.52	29		
O=C(/C=C/c1ccc(F)cc1)O[C@H](c1ccccc1)[C@H]1O[C@@H]2CC(=O)O[C@@H]2[C@H]1O	29.6	9.45	4.58	> 100	24.1	18.1	14.5	18.7		
O=C(/C=C/c1ccccc1)O[C@@H](c1ccccc1)[C@H]1O[C@@H]2CC(=O)O[C@@H]2[C@H]1O	3.37	1.34	2.01	> 100	0.69	1.03	1.31	9.47		
O=C(/C=C/c1ccc([N+](=O)[O-])cc1)O[C@@H]1[C@H]2OC(=O)C[C@H]2O[C@@H]1[C@@H](O)c1ccccc1	2.64	0.36	1.12	> 100	1.66	3.52	1.02	56.2		3
O=C(/C=C/c1ccccc1)O[C@@H]1[C@H]2OC(=O)C[C@H]2O[C@@H]1[C@H](OC(=O)/C=C/c1ccccc1)c1ccccc1	> 100	3.33	21.4	48.6	12.2	2.65	11	> 100		
O=C(/C=C/c1ccc([N+](=O)[O-])cc1)OC1C2OC(=O)CC2O[C@@H]1Cc1ccccc1 (single isomer, unassigned)	5.32	0.14	0.98	> 100	0.87	3.74	2.69	23.2		
COc1ccc(/C=C/C(=O)O[C@@H](c2ccccc2)[C@H]2O[C@@H]3CC(=O)O[C@@H]3[C@H]2O)cc1	28.6	8.79	11.5	> 100	11	18.6	8.45	9.64		
O=C(/C=C/c1ccc([N+](=O)[O-])cc1)O[C@H](c1ccccc1)[C@H]1O[C@@H]2CC(=O)O[C@@H]2[C@H]1O	33.4	14.3	2.25	> 100	35.7	10.5	16.4	5.23		
COc1cccc2c1C(=O)c1c(O)c3c(c(O)c1C2=O)C[C@@](O)(C(=O)CO)C[C@@H]3O[C@H]1C[C@H](N)[C@H](O)[C@H](C)O1 [DOXORUBICIN]		0.92			0.065					
COc1ccc(/C=C/C(=O)OC2C3OC(=O)CC3O[C@@H]2Cc2ccccc2)cc1 (single isomer, unassigned)	4.34	0.27	1.02	> 100	0.94	0.84	3.58	61		
O=C(/C=C/c1ccccc1)O[C@@H]1[C@H]2OC(=O)C[C@H]2O[C@@H]1[C@@H](OC(=O)/C=C/c1ccccc1)c1ccccc1	6.69	0.15	2.15	> 100	1.45	0.31	10.2	1.64		
O=C(/C=C/c1ccccc1)O[C@H](c1ccccc1)[C@H]1O[C@@H]2CC(=O)O[C@@H]2[C@H]1O [(+)-CRASSALACTONE C]	88	> 100		> 100				7.34		
